# Read-outs that look alike come from different tables or passages of the source.
# What was measured:
# E. coli PBP3 = E. coli PBP3 (Escherichia coli (strain K12), UniProt P0AD68); assay: E. coli PBP3 Bocillin-FL fluorescence polarization competition binding assay
# How it was run: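 Steps: purified PBP (1.5 μM final) mixed with compound (0–1000 μM) in 50 mM Hepes pH 8.0, 300 mM NaCl, 5% glycerol; Bocillin-FL added to 0.1 μM; FP (ex 490, em 520 nm) followed for 60 min. Concentration reducing Bocillin-FL binding reported as EC50.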
# N. gonorrhoeae FA19 = assay: Liquid broth MIC, N. gonorrhoeae FA19; assay type: cell-based; conditions: Neisseria gonorrhoeae; N. gonorrhoeae FA19, liquid broth; read-out: Minimum Inhibitory Concentration, N. gonorrhoeae FA19
# How it was run: (§1)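 In liquid broth, wild-type reference gonococci at 5×10^5 CFU/mL faced twofold compound dilutions for 40-42 hours (36° C, 5% CO2). The MIC was the lowest concentration with no growth seen by eye.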
# [1] = system: N. gonorrhoeae ATCC 49226; assay: Liquid broth MIC, N. gonorrhoeae ATCC 49226; assay type: cell-based; conditions: Neisseria gonorrhoeae, ATCC49226; N. gonorrhoeae ATCC 49226, liquid broth; read-out: Minimum Inhibitory Concentration, N. gonorrhoeae ATCC 49226
# How it was run: as §1
# K. pneumoniae 848844 = assay: microbe, parasite or virus in culture; assay type: cell-based, Klebsiella pneumoniae; conditions: Klebsiella pneumoniae; K. pneumoniae 848844 producing SHV-11 and KPC-2; read-out: MIC K. pneumoniae 848844
# How it was run: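 Visual MIC readout after 16-20 h at 37° C in CLSI-format microdilution. Compounds tested as 2-fold series against a 5×10^5 CFU/mL inoculum in cation-supplemented Mueller-Hinton broth.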
# E. coli AG100 = assay: Broth microdilution MIC, E. coli AG100 (wild-type parent); assay type: cell-based; conditions: Escherichia coli; wild-type parent E. coli AG100, broth microdilution; read-out: MIC E. coli AG100
# How it was run: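 Starting inoculum of 5×10^5 CFU/mL, from colonies grown 3-5 h in Mueller-Hinton broth with divalent cations, added to two-fold compound dilution series.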
# N. gonorrhoeae WHO F = assay: Liquid broth MIC, N. gonorrhoeae WHO F; assay type: cell-based; conditions: Neisseria gonorrhoeae; N. gonorrhoeae WHO F, liquid broth; read-out: Minimum Inhibitory Concentration, N. gonorrhoeae WHO F
# How it was run: as §1
# [2] = fluorescence polarization competition binding with Bocillin-FL, read-out: E. coli K12 PBP3 Potency
# E. coli PBP3, sequence (P0AD68 whole entry): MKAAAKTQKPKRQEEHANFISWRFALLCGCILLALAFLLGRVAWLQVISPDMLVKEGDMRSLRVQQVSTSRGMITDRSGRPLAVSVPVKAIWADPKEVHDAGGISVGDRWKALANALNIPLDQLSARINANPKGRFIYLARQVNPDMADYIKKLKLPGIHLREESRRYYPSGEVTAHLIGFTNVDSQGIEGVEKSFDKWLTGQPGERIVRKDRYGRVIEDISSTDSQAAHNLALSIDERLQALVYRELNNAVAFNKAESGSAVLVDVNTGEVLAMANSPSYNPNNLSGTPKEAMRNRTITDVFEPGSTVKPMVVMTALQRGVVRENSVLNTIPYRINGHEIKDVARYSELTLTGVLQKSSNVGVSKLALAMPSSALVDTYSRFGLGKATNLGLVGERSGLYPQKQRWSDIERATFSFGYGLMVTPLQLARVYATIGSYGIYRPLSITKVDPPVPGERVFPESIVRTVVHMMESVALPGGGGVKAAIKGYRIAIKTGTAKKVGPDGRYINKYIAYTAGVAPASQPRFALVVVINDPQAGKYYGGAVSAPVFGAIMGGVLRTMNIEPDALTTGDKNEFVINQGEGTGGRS
Compound,EC50 (E. coli PBP3; [2]) [µM],MIC (N. gonorrhoeae FA19) [µg/mL],MIC [1] [µg/mL],MIC (K. pneumoniae 848844) [µg/mL],MIC (E. coli AG100) [µg/mL],MIC (N. gonorrhoeae WHO F) [µg/mL],EC50 (E. coli PBP3) [µM]
"CCN1CCN(C(=O)N[C@@H](C(=O)N[C@H]2Cc3cccc(C(=O)O)c3OB2O)c2ncc(O)cc2F)C(=O)C1=O [Example 177, (R)-3-((R)-2-(4-ethyl-2,3-dioxopiperazine-1-carboxamido)-2-(3-fluoro-5-hydroxypyridin-2-yl)acetamido)-2-hydroxy-3,4-dihydro-2H-benzo[e][1,2]oxaborinine-8-carboxylic acid]",< 30,4 to 8,4 to 8,32 to 64,8 to 16,< 0.125,
"CCN1CCN(C(=O)NC(C(=O)N[C@H]2Cc3ccc(F)c(C(=O)O)c3OB2O)c2ccc(S(N)(=O)=O)cc2)C(=O)C1=O (stereo partly drawn) [Example 181, (3R)-3-(2-(4-ethyl-2,3-dioxopiperazine-1-carboxamido)-2-(4-sulfamoylphenyl)acetamido)-7-fluoro-2-hydroxy-3,4-dihydro-2H-benzo[e][1,2]oxaborinine-8-carboxylic acid]",,4 to 8,4 to 8,32 to 64,> 128,0.25 to 0.5,30 to 500
"NS(=O)(=O)c1ccc(C(NC(=O)N2CCN(CCF)C(=O)C2=O)C(=O)N[C@H]2Cc3ccc(F)c(C(=O)O)c3OB2O)cc1 (stereo partly drawn) [Example 182, (3R)-7-fluoro-3-(2-(4-(2-fluoroethyl)-2,3-dioxopiperazine-1-carboxamido)-2-(4-sulfamoylphenyl)acetamido)-2-hydroxy-3,4-dihydro-2H-benzo[e][1,2]oxaborinine-8-carboxylic acid]",,4 to 8,4 to 8,> 128,> 128,1 to 2,30 to 500
"O=C(O)c1c(F)ccc2c1OB(O)[C@@H](NC(=O)C(NC(=O)N1CCN(CCF)C(=O)C1=O)c1ncc(O)cc1F)C2 (stereo partly drawn) [Example 183, (3R)-7-fluoro-3-(2-(3-fluoro-5-hydroxypyridin-2-yl)-2-(4-(2-fluoroethyl)-2,3-dioxopiperazine-1-carboxamido)acetamido)-2-hydroxy-3,4-dihydro-2H-benzo[e][1,2]oxaborinine-8-carboxylic acid]",< 30,1 to 2,0.25 to 0.5,> 128,8 to 16,< 0.125,
"CCN1CCN(C(=O)N[C@H](C(=O)N[C@H]2Cc3ccc(F)c(C(=O)O)c3OB2O)c2ccc(O)c(O)c2Cl)C(=O)C1=O [Example 188, (R)-3-((S)-2-(2-chloro-3,4-dihydroxyphenyl)-2-(4-ethyl-2,3-dioxopiperazine-1-carboxamido)acetamido)-7-fluoro-2-hydroxy-3,4-dihydro-2H-benzo[e][1,2]oxaborinine-8-carboxylic acid]",,16 to 32,16 to 32,8 to 16,8 to 16,4 to 8,30 to 500
"CCN1CCN(C(=O)N[C@@H](C(=O)N[C@H]2Cc3ccc(F)c(C(=O)O)c3OB2O)c2ccc(O)c(O)c2Cl)C(=O)C1=O [Example 189, (R)-3-((R)-2-(2-chloro-3,4-dihydroxyphenyl)-2-(4-ethyl-2,3-dioxopiperazine-1-carboxamido)acetamido)-7-fluoro-2-hydroxy-3,4-dihydro-2H-benzo[e][1,2]oxaborinine-8-carboxylic acid]",< 30,1 to 2,1 to 2,2 to 4,2 to 4,0.25 to 0.5,
"CCN1CCN(C(=O)N[C@@H](C(=O)N[C@H]2Cc3cccc(C(=O)O)c3OB2O)c2ccc(O)c(O)c2Cl)C(=O)C1=O [Example 190, (R)-3-((R)-2-(2-chloro-3,4-dihydroxyphenyl)-2-(4-ethyl-2,3-dioxopiperazine-1-carboxamido)acetamido)-2-hydroxy-3,4-dihydro-2H-benzo[e][1,2]oxaborinine-8-carboxylic acid]",,4 to 8,1 to 2,0.5 to 1,0.5 to 1,0.25 to 0.5,30 to 500
"CCN1C[C@@H](C)N(C(=O)NC(C(=O)N[C@H]2Cc3cccc(C(=O)O)c3OB2O)c2ncc(O)cc2F)C(=O)C1=O (stereo partly drawn) [Example 191, (3R)-3-(2-((R)-4-ethyl-6-methyl-2,3-dioxopiperazine-1-carboxamido)-2-(3-fluoro-5-hydroxypyridin-2-yl)acetamido)-2-hydroxy-3,4-dihydro-2H-benzo[e][1,2]oxaborinine-8-carboxylic acid]",,16 to 32,> 64,> 128,> 128,1 to 2,30 to 500
"CCN1CCN(C(=O)NC(C(=O)N[C@H]2Cc3ccc(F)c(C(=O)O)c3OB2O)c2ccc(O)c(O)c2Cl)C(O)C1=O (stereo partly drawn) [Example 194, (3R)-3-(2-(2-chloro-3,4-dihydroxyphenyl)-2-(4-ethyl-2-hydroxy-3-oxopiperazine-1-carboxamido)acetamido)-7-fluoro-2-hydroxy-3,4-dihydro-2H-benzo[e][1,2]oxaborinine-8-carboxylic acid]",,4 to 8,16 to 32,8 to 16,8 to 16,4 to 8,30 to 500
"NS(=O)(=O)c1ccc(C(NC(=O)N2CCN(CCF)C(=O)C2=O)C(=O)N[C@H]2Cc3cccc(C(=O)O)c3OB2O)c(F)c1 (stereo partly drawn) [Example 204, (3R)-3-(2-(2-fluoro-4-sulfamoylphenyl)-2-(4-(2-fluoroethyl)-2,3-dioxopiperazine-1-carboxamido)acetamido)-2-hydroxy-3,4-dihydro-2H-benzo[e][1,2]oxaborinine-8-carboxylic acid]",< 30,1 to 2,1 to 2,> 128,32 to 64,0.25 to 0.5,
"CCN1CCN(C(=O)NC(C(=O)N[C@H]2Cc3cccc(C(=O)O)c3OB2O)c2nc(N)sc2F)C(=O)C1=O (stereo partly drawn) [Example 205, (3R)-3-(2-(2-amino-5-fluorothiazol-4-yl)-2-(4-ethyl-2,3-dioxopiperazine-1-carboxamido)acetamido)-2-hydroxy-3,4-dihydro-2H-benzo[e][1,2]oxaborinine-8-carboxylic acid]",< 30,< 0.125,< 0.125,32 to 64,8 to 16,< 0.125,
"CCN1C[C@H](C)N(C(=O)NC(C(=O)N[C@H]2Cc3ccc(F)c(C(=O)O)c3OB2O)c2ccc(O)c(O)c2Cl)C(=O)C1=O (stereo partly drawn) [Example 206, (3R)-3-(2-(2-chloro-3,4-dihydroxyphenyl)-2-((S)-4-ethyl-6-methyl-2,3-dioxopiperazine-1-carboxamido)acetamido)-7-fluoro-2-hydroxy-3,4-dihydro-2H-benzo[e][1,2]oxaborinine-8-carboxylic acid]",< 30,4 to 8,4 to 8,2 to 4,0.5 to 1,0.25 to 0.5,
"CCN1C[C@H](C)N(C(=O)NC(C(=O)N[C@H]2Cc3ccc(F)c(C(=O)O)c3OB2O)c2ncc(O)cc2F)C(=O)C1=O (stereo partly drawn) [Example 208, (3R)-3-(2-((S)-4-ethyl-6-methyl-2,3-dioxopiperazine-1-carboxamido)-2-(3-fluoro-5-hydroxypyridin-2-yl)acetamido)-7-fluoro-2-hydroxy-3,4-dihydro-2H-benzo[e][1,2]oxaborinine-8-carboxylic acid]",< 30,4 to 8,4 to 8,32 to 64,8 to 16,< 0.125,
"CCN1CCN(C(=O)NC(C(=O)N[C@H]2Cc3cccc(C(=O)O)c3OB2O)c2ccc(S(N)(=O)=O)c(F)c2)C(=O)C1=O (stereo partly drawn) [Example 210, (3R)-3-(2-(4-ethyl-2,3-dioxopiperazine-1-carboxamido)-2-(3-fluoro-4-sulfamoylphenyl)acetamido)-2-hydroxy-3,4-dihydro-2H-benzo[e][1,2]oxaborinine-8-carboxylic acid]",,1 to 2,4 to 8,> 128,32 to 64,< 0.125,30 to 500
"CCN1CCN(C(=O)NC(C(=O)N[C@H]2Cc3cccc(C(=O)O)c3OB2O)c2ccc(C(=O)O)cc2)C(=O)C1=O (stereo partly drawn) [Example 212, (3R)-3-(2-(4-carboxyphenyl)-2-(4-ethyl-2,3-dioxopiperazine-1-carboxamido)acetamido)-2-hydroxy-3,4-dihydro-2H-benzo[e][1,2]oxaborinine-8-carboxylic acid]",< 30,0.25 to 0.5,0.25 to 0.5,> 128,32 to 64,< 0.125,

# Reference: patent US12173018B2, “Penicillin-binding protein inhibitors” (priority 2018, dated 2024)
